This assay addresses Substance-P receptor (Homo sapiens, UniProt P25103). The experiment in a line: Inhibition of substance P binding to Tachykinin receptor 1 in Chinese hamster ovary cells. The format is cell-based.

Molecules are shown by their SMILES.

As a reminder, the IC50 is the concentration at which inhibition is half-maximal. A high value points to a need for much substance.

Sequence of Substance-P receptor (P25103 whole entry): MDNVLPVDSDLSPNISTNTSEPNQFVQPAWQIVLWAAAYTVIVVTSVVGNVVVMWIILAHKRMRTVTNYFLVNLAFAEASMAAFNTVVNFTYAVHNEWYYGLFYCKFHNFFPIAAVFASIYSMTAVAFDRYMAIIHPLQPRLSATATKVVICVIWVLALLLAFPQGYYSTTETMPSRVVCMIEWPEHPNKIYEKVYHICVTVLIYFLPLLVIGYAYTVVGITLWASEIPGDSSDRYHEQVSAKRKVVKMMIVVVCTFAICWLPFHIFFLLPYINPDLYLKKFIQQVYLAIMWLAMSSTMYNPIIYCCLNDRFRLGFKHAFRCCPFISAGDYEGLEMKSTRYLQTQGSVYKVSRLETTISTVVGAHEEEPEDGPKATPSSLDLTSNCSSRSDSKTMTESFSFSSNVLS

Take `NC(=O)CNC(COCc1cc(C(F)(F)F)cc(C(F)(F)F)c1)C(c1ccccc1)c1ccccc1` (stereo in doubt; 16): where the note is “ovary”, the IC50 came to 0.53 nM.

`COc1ccc(-n2cnnn2)cc1CN[C@H]1CCCN[C@H]1c1ccccc1` returned a half-inhibitory concentration (IC50) of 0.06 nM.

In turn, `NC(COCc1ccccc1)C(c1ccccc1)c1ccccc1` (centres undefined) displayed an IC50 of 400 nM.

On to `N[C@H](Cc1c[nH]c2ccccc12)C(=O)OCc1ccccc1`, for which the 50% inhibitory concentration (IC50) was above 10000 nM.

As for `FC(F)(F)c1cc(COCC2(c3ccccc3)CCNCC2)cc(C(F)(F)F)c1`, the IC50 amounted to 1 nM.

Turning to `Cc1cc(C)cc(COC(=O)[C@H](N)Cc2c[nH]c3ccccc23)c1`, the IC50 is 1530 nM. Against the preceding molecule, the IC50 is about 1500-fold higher.

On to `O=C(CSc1nnc(-c2ccncc2)n1-c1ccccc1)Nc1cccc(Cl)c1`, for which the half-inhibitory concentration (IC50) is 250 nM.

With `NC(=O)CNC(COCc1cc(C(F)(F)F)cc(C(F)(F)F)c1)C(c1ccccc1)c1ccccc1` (stereo in doubt; 5), the concentration for half-maximal inhibition (IC50) amounted to 0.53 nM.

The molecule `CC(=O)NC(Cc1c[nH]c2ccccc12)C(=O)OCc1cc(C)cc(C)c1` (centres undefined) came in with a 50% inhibitory concentration (IC50) of 67 nM.

(Values after ChEMBL document CHEMBL1138792, “Successful virtual screening for a submicromolar antagonist of the neurokinin-1 receptor based on a ligand-supported homology model” (J Med Chem, 2004).)
